According to US20250346885A1, “SYSTEMS AND METHODS FOR TARGETED CONTINUOUS GENOME MUTAGENESIS” (The Broad Institute, Inc., priority 2023, published 2025):

Experiments:
HEK293FT cells = experiment: CellTiter-Glo cell viability after transfection of HACE constructs; type: cell-based, human
Protocol: The effects of different HACE constructs on cell viability were then quantified. To do so, the cell viability was quantified using a luciferase-based ATP-assay (CellTiter-Glo) across various helicase constructs both with and without deaminase along with a loci-targeting sgRNA and nCas9 (FIG. 11A).
Cell viability was measured using the CellTiter-Glo Luminescent Cell Viability Assay (Promega) following the manufacturer's protocols. Briefly, HEK293FT cells were seeded at a density of 10,000 cells per 100 μL per well in a 96-well plate in biological triplicates. The following day, cells were transfected with respective HACE plasmids according to the above protocol. Cell viability was measured 72 h after transfection. Luminescence readings were performed using a SpectraMax M5 (Molecular Devices) plate reader.

double-stranded DNA = settings: average base pairs unwound in a single binding event; cited from earlier work
HEK3, TNF, and IL6 loci = experiment: HACE editing rate and range with helicase and nickase variants (1000 bp window, local rate in 100 bp bins); type: cell-based, human; settings: nCas9 D10A versus nCas9 H840A
Protocol: In one embodiment, HACE constructs were tested with different helicase enzymes.
The editing range of different HE constructs was then characterized. For each helicase, nickase, and loci combination, the respective HE, nCas9, and sgRNA combination was transfected into HEK293FT cells, genomic DNA was harvested after three days, and then a 1000 bp window was amplified by PCR for sequencing. The target-strand and non-target strand nickase had similar long range editing performance (FIG. 5C-D, FIG. 10B-C). […] Thus, the nCas9 binding and DNA-sgRNA duplex might obstruct the helicase loading on the non-nicked single-stranded DNA.
In another embodiment, the local average mutation rate was calculated in 100 bp bins for each genomic loci (FIG. 10D). […]
For long amplicon (˜2000 bp) sequencing, the targeted region was amplified using Phusion U Hot Start PCR master mix in a 20 μL reaction. […] The concentration of each sample was measured by Qubit (Thermo Fisher Scientific). […] Sequencing was performed on a NextSeq (Illumina) with paired-end reads (read1,100 bp; index1, 8 bp; index2, 8 bp; read2, 100 bp).
To calculate the mutation rate, it was filtered for base positions with a sequencing coverage of at least 10,000. […] The average G>A editing rate was calculated by extracting all positions where “G” was the reference base, then taking the average of the per base G>A editing rate. […]

BLM: human helicase; in b329, b331 and b335 the HE constructed with it
cell viability (CellTiter-Glo) (HEK293FT cells): did not result in a significant decrease in cell viability | processivity range (double-stranded DNA): over 200 base pairs | preference of target and non-target strand nickase (HEK3, TNF, and IL6 loci): prefer both nickase variants equally
